Data on twelve compounds can be found in US11427539B2, “Beta-hydroxy heterocyclic amines and their use in the treatment of hyperglycaemia” (ATROGI AB, priority 2017, dated 2022).

Counter-ions that a name gives are not always drawn. Like-named read-outs stand apart in the source and are kept apart here.

Assay [1] deals with Differentiated L6-myotubes. The experiment in a line: Glucose uptake in differentiated L6-myotubes (3H-2-deoxy-glucose). Format: cell-based. As to conditions: read-out: Biological example 1: glucose uptake, activity compared to that of isoproterenol.
For assay [2], the system named is Intracellular cAMP levels in differentiated cells (L6-myotubes). The assay is described as follows: Measurement of intracellular cAMP levels (alpha screen cAMP kit). The format is cell-based. The settings on record: 0.25 h, read-out: Biological example 2: intracellular cAMP levels, activity compared to that of isoproterenol. The method, then:
L6-myoblasts were grown in Dulbecco's Modified Eagle's Medium (DMEM) containing 4.5 g/l glucose supplemented with 10% fetal bovine serum, 2 mM L-Glutamine, 50 U/ml penicillin, 50 μg/ml streptomycin and 10 mM HEPES. Cells were plated at 1×10^5 cells per ml in 24-well plates. After reaching 90% confluence the cells were grown in medium containing 2% FBS for 7 days where upon cells differentiated into myotubes. Differentiated cells were serum-starved over night and stimulated with agonist, final concentration 1×10-^5, for 15 min in stimulation buffer (HBSS supplemented with 1% BSA, 5 mM HEPES and 1 mM IBMX, pH 7.4) The medium was then aspirated and to end the reaction 100 μL of 95% EtOH was added to each well of a 24-well plate and cells were kept in −20° C. over night. The EtOH was let to evaporate and 500 μL of lysis buffer (1% BSA, 5 mM HEPES and 0.3% Tween-20, pH 7.4) was added to each well before put in −80° C. for 30 min and then kept in −20° C. Intracellular cAMP levels were detected using an alpha screen cAMP kit (6760635D from Perkin Elmer). The activity for each compound is compared to that of isoproterenol.
(In general: Cyclic AMP is a second messenger, typically raised through Gs and lowered through Gi signalling.)

Where [3] appears, read: agonist final concentration 1×10^−5, L6-myotubes, 3H-2-deoxy-glucose uptake, relative to isoproterenol.
The mark [4] stands for this setting: agonist final concentration 1×10-^5, 15 min, differentiated cells, relative to isoproterenol.

As to `C[C@@H]1CC[C@H]([C@H](O)c2ccccc2)N1` (racemic) [Example 12, Racemic mixture of (R)-((2R,5R)-5-Methylpyrrolidin-2-yl)(phenyl)methanol and (S)-((2S,5S)-5-Methylpyrrolidin-2-yl)(phenyl)methanol], the Emax is 50 to 75% in assay [1] and less than 25% in assay [2].

On to `CCC[C@H]1CCC[C@H]([C@@H](O)c2cc(F)cc(F)c2)N1` [Example 27, (S)-(3,5-Difluorophenyl)((2R,6S)-6-propylpiperidin-2-yl)methanol acetate], for which the Emax in assay [1] (setting [3]) is 25 to 50%; in assay [2] (setting [4]), less than 25%.

For the compound `CCC[C@@H]1CC[C@@H]([C@@H](O)c2cccc(F)c2)N1` [Example 44, (S)-(3-Fluorophenyl)((2S,5R)-5-propylpyrrolidin-2-yl)methanol Hydrochloride], the Emax in assay [1] (setting [3]) is 50 to 75%; in assay [2] (setting [4]) it was less than 25%.

Take `CCC[C@H]1CCC[C@H]([C@H](O)c2cccc(F)c2)N1` [Example 2, (R)-(3-Fluorophenyl)((2R,6S)-6-propylpiperidin-2-yl)methanol]: the Emax is greater than 75% in assay [1] (setting [3]) and less than 25% in assay [2] (setting [4]).

On to `CCC[C@H]1CCC[C@H]([C@H](O)c2ccccc2F)N1` [Example 22, (R)-(2-Fluorophenyl)((2R,6S)-6-propylpiperidin-2-yl)methanol], for which the Emax in assay [1] (setting [3]) is 50 to 75%; in assay [2] (setting [4]), less than 25%.

With `CCC[C@H]1CCC[C@H]([C@H](O)c2cc(F)cc(F)c2)N1` [Example 3, (R)-(3,5-Difluorophenyl)((2R,6S)-6-propylpiperidin-2-yl)methanol], the figures for the Emax in assay [1] (setting [3]) and in assay [2] (setting [4]) were greater than 75% and less than 25%, respectively.

Consider `CCC[C@H]1CCC[C@H]([C@@H](O)c2ccc(F)c(F)c2)N1` [Example 28, (S)-(3,4-Difluorophenyl)((2R,6S)-6-propylpiperidin-2-yl)methanol], for which the figures for the Emax in assay [1] (setting [3]) and in assay [2] (setting [4]) were 25 to 50% and less than 25%, respectively.

With `CCC[C@@H]1CCC[C@H]([C@H](O)c2ccccc2F)N1` [Example 16, (R)-(2-Fluorophenyl)((2R,6R)-6-propylpiperidin-2-yl)methanol], the Emax in assay [1] (setting [3]) is 50 to 75%; in assay [2] (setting [4]), less than 25%.

With `CCC[C@H]1CCC[C@H]([C@H](O)c2cccc(Cl)c2)N1` [Example 20, (R)-(3-Chlorophenyl)((2R,6S)-6-propylpiperidin-2-yl)methanol hydrochloride], the Emax was 25 to 50% in assay [1] (setting [3]) and less than 25% in assay [2] (setting [4]).

`CCC[C@H]1CCC[C@@H]([C@H](O)c2cccc(O)c2)N1` [Example 37, (R)-(3-Hydroxyphenyl)((2S, 6S)-6-propylpiperidin-2-yl)methanol]: the Emax in assay [1] (setting [3]) is 50 to 75%; in assay [2] (setting [4]) it was less than 25%.

In the case of `CCC[C@H]1CCC[C@@H]([C@H](O)c2cccc(Cl)c2)N1` [Example 36, (R)-(3-Chlorophenyl)((2S,6S)-6-propylpiperidin-2-yl)methanol hydrochloride], the results for the Emax in assay [1] (setting [3]) and in assay [2] (setting [4]) were 25 to 50% and less than 25%, respectively.

Regarding `C[C@@H]1CC[C@H]([C@H](O)c2cccc(O)c2)N1` (racemic) [Example 10, Racemic Mixture of 3-((R)-Hydroxy((2R,5R)-5-methylpyrrolidin-2-yl)methyl)-phenol Acetate and 3-((S)-Hydroxy((2S,5S)-5-methylpyrrolidin-2-yl)methyl)phenol Acetate], the results for the Emax in assay [1] (setting [3]) and in assay [2] (setting [4]) were greater than 75% and less than 25%, respectively.
